“Also recorded” adds a separate entry of the source. Read-outs that look alike come from different tables or passages of the source.
Columns and labels:
[1] = Stability of prodrugs / release of parent drug in Simulated Gastric Fluid (SGF); assay type: in vitro ADME
Procedure: SGF was prepared according to the procedure described in Test Solution—USP. Thus, 0.2 g of sodium chloride and 0.32 g of purified pepsin (Sigma, derived from porcine stomach mucosa with an activity of 800 to 2500 units per mg of protein) were dissolved in 0.7 mL of hydrochloric acid and sufficient water to make 100 mL. This test solution has a pH of about 1.2 and was utilized for in-vitro studies.
The solution of the test compound in acetonitrile (10 μL of […] solution) was dissolved in 990 μL of biological fluid (SGF/SIF/Human Plasma). The resulting reaction mixtures were incubated at 37° C. At specified time intervals, aliquots (60 μL) were withdrawn and added to acetonitrile (200 μL) and mixed well by vortexing for 2 minutes. The mixture was centrifuged at 13000 rpm for 15 min at 4° C., and the supernatant analyzed by HPLC. The amounts (area percentages) of the remaining intact prodrug (if any) and the released metabolite(s) were estimated by HPLC.
This was performed by using HPLC instrument (Waters alliance), pump 2695, and PDA detector 2996 with the following chromatographic parameters: Wavelength −210 nm; Column-Waters X-Terra RP-18, 150×3.9 mm, 5 μm; Injection volume, 25 μL; Run time, 13 min. Mode of operation was linear gradient with mobile phase A: Acetonitrile and B: 0.1% TFA in water (filtered and degassed). Flow rate was 1.0 mL/min at 25° C.

[2] = Stability of prodrugs at RT and at 50° C. (capped vials); assay type: physicochemical
[3] = Acute gastric ulcerogenesis activity study; details: rats, acute oral; aspirin 100 mg/kg, I-D1-R1 298.85 mg/kg, naproxen 100 mg/kg, I-D2-R1 138.67 mg/kg
Procedure: The animals were sacrificed after 5 h of drug administration. The stomachs of the treated animals were separated, perfused with 2% formalin (10 mL), and a large curvature was excised. The severity of the mucosal damage was assessed on the basis of the size of the observed ulcer lesions in the images captured using a stereomicroscope attached to a digital camera (Stemi 2000, Zeiss, Germany). The Image Pro Plus software (version 5.1) was used to quantify the hemorrhagic/ulcer lesions in pixels and to convert them into mm^2. The total area of lesions was calculated for each treatment group and the measure of gastric ulcers (Mean±SEM) (mm^2) was estimated (FIGS. 5 and 6).

[4] = test system: serum thromboxane B2 (TXB2) formation; experiment: Inhibition of serum thromboxane B2 (TXB2) formation; assay type: in vivo, Sprague-Dawley (SD) rats; details: Rattus norvegicus, po, 168 h; SD rats, 30 mg/kg aspirin or equimolar 44.82 mg/kg, o.d., 7 days
Procedure: Aspirin is used as an antiplatelet agent for the treatment of cardiovascular complications. […] It is therefore possible to achieve complete suppression of platelet. TXA2 (and also TXB2) formation via chronic administration of aspirin at a dose of 30 mg/daily (Patrignani, P., et al. J. Clin. Invest. 1982, 69, 1366-1372). The antiplatelet activity of aspirin (30 mg/kg) and its prodrug I-D1-R1 (at a dose equimolar to 30 mg/kg dose of aspirin) was evaluated in Sprague-Dawley (SD) rats through estimation of serum TXB2 levels (Esser, R. et al., Br. J. Pharmacol. 2006, 144, 538-550) and the experimental results are presented in FIG. 7.
In vivo TXB2 inhibition potential of aspirin and NO-aspirin prodrugs was assessed in Sprague-Dawley (SD) rats; the serum TXB2 levels were estimated according to the reported procedure (R. Esser, R., et al., Br. J. Pharmacol. 2006, 144, 538-550). Thus, vehicle, aspirin (30 mg/kg) or aspirin prodrug I-D1-R1 (44.82 mg/kg which is equivalent to 30 mg/kg dose of aspirin) were administered orally to the overnight fasted SD rats. […] The serum TXB2 concentrations were determined by enzyme immunoassay (EIA) using commercially available TXB2 estimation kit (Cayman Chemicals, USA), according to the method described in kit information booklet.

[5] = simulated gi fluid, 0 h, 1 µM, pH 1.2
[6] = simulated gi fluid, 1 µM, pH 1.2
[7] = simulated gi fluid, 5 min, 1 µM, pH 1.2
[8] = simulated gi fluid, 10 min, 1 µM, pH 1.2
[9] = simulated gi fluid, 0.5 h, 1 µM, pH 1.2
[10] = simulated gi fluid, 1 h, 1 µM, pH 1.2
[11] = simulated gi fluid, 2 h, 1 µM, pH 1.2
[12] = simulated gi fluid, 3 h, 1 µM, pH 1.2

| SMILES | Release of parent drug on incubation in SGF (in words) [1] | Prodrug Remaining (%) [1, 5] [%] | t1/2 of prodrug in SGF [1, 6] [h] | Prodrug Remaining (%) [1, 7] [%] | Prodrug Remaining (%) [1, 8] [%] | Prodrug Remaining (%) [1, 9] [%] | Prodrug Remaining (%) [1, 10] [%] | Prodrug Remaining (%) [1, 11] [%] | Prodrug Remaining (%) [1, 12] [%] | other results |
| --- | --- | --- | --- | --- | --- | --- | --- | --- | --- | --- |
| CC(OC(=O)CCCc1ccc(N(CCCl)CCCl)cc1)O[N+](=O)[O-] (stereo not shown) [I-D3-R1, 1-(nitrooxy)ethyl 4-(4-(bis(2-chloroethyl)amino)phenyl)butanoate] |  |  |  |  |  |  |  |  |  | Prodrug Remaining (%) ([1]; SGF, 0 min): 92.12%; Prodrug Remaining (%) ([1]; SGF, 5 min): 20.49%; Prodrug Remaining (%) ([1]; SGF, 10 min): 13.84%; Prodrug Remaining (%) ([1]; SGF, 15 min): 8.59%; Prodrug Remaining (%) ([1]; SGF, 30 min): 0.00%; Prodrug Remaining (%) ([1]; SGF, 60 min): 0.00%; Prodrug Remaining (%) ([1]; SGF, 120 min): 0.00%; Prodrug Remaining (%) ([1]; SGF, 180 min): 0.00%; Release of parent drug on incubation in SGF (in words) ([1]; SGF, whole time course): quantitative release of the parent drug, chlorambucil; also recorded: released its parent drug chlorambucil quantitatively; half-life at 1 µM ([1]; simulated gi fluid, pH 1.2, SGF, read-out: t1/2 of prodrug in SGF): < 5 min |
| CCCCC(OC(=O)[C@@H](C)c1ccc2cc(OC)ccc2c1)O[N+](=O)[O-] (stereo partly drawn) [I-D2-R4, (2S)-1-(nitrooxy)pentyl 2-(6-methoxynaphthalen-2-yl)propanoate] | released appreciable amounts of the parent drug naproxen | 100 | >3 | 97.74 | 96.18 | 90.53 | 88.87 | 79.97 | 71.04 |  |
| COc1ccc2cc([C@H](C)C(=O)OCCO[N+](=O)[O-])ccc2c1 [II-D2-X2, reference compound] | no release of parent drug naproxen | 100.00 |  | 99.68 | 99.79 | 99.75 | 99.67 | 99.39 | 99.19 | Fate of prodrug on incubation in SGF (in words) [1]: remained intact |
| COc1ccc2cc([C@H](C)C(=O)OC(C)O[N+](=O)[O-])ccc2c1 (stereo partly drawn) [I-D2-R1, (2S)-1-(nitrooxy)ethyl 2-(6-methoxynaphthalen-2-yl)propanoate] | released quantitative amounts of the parent drug, naproxen | 100.00 |  | 84.68 | 74.58 | 32.79 | 0.00 | 0.00 | 0.00 | Nap (Naproxen) formed on storage ([2]; 50° C., 0 h): NIL; Prodrug (area %) on storage ([2]; 50° C., 0 h): 99.12%; Nap (Naproxen) formed on storage ([2]; 50° C., 25 d): 0.33%; Prodrug (area %) on storage ([2]; 50° C., 25 d): 99.00%; Nap (Naproxen) formed on storage ([2]; RT, 0 h): NIL; Prodrug (area %) on storage ([2]; RT, 0 h): 99.12%; Nap (Naproxen) formed on storage ([2]; RT, 25 d): 0.2%; Prodrug (area %) on storage ([2]; RT, 25 d): 98.87%; Stability on storage (in words) ([2]; both at RT and at 50° C., up to 25 days): remained stable; Development of gastric ulcers or lesions [3]: none of the animals; melting point: 69 to 71 °C |
| CC(=O)Oc1ccccc1C(=O)O [Aspirin, aspirin, reference compound] |  |  |  |  |  |  |  |  |  | inhibition at 30 mg/kg [4]: 76%; AUC of aspirin (released / remaining) in SGF ([1]; 1 µM, pH 1.2): 12348 µM·h |
| COc1ccc2cc([C@H](C)C(=O)OCCCO[N+](=O)[O-])ccc2c1 [II-D2-X3, reference compound] |  | 100.00 |  | 100.00 | 100.00 | 100.00 | 100.00 | 100.00 | 100.00 |  |
| CCC(OC(=O)[C@@H](C)c1ccc2cc(OC)ccc2c1)O[N+](=O)[O-] (stereo partly drawn) [I-D2-R2, (2S)-1-(nitrooxy)propyl 2-(6-methoxynaphthalen-2-yl)propanoate] | released naproxen | 100 | ~1 | 94.33 | 90.43 | 62.15 | 51.01 | 39.08 | 6.77 |  |
| CC(=O)Oc1ccccc1C(=O)Oc1cccc(CO[N+](=O)[O-])c1 [II-D1-X1, reference compound] |  |  |  |  |  |  |  |  |  | Fate of prodrug on incubation in SGF (in words) [1]: remained intact; % of Prodrug remaining (μM) [1, 5]: 100.00%; % of Prodrug remaining (μM) [1, 7]: 100.00%; % of Prodrug remaining (μM) [1, 8]: 100.00%; % of Prodrug remaining (μM) [1, 9]: 100.00%; % of Prodrug remaining (μM) [1, 10]: 100.00%; % of Prodrug remaining (μM) [1, 11]: 100.00% |

The next lines start with results.

| Release of parent drug on incubation in SGF (in words) [1] | Prodrug Remaining (%) [1, 5] [%] | t1/2 of prodrug in SGF [1, 6] [h] | Prodrug Remaining (%) [1, 7] [%] | Prodrug Remaining (%) [1, 8] [%] | Prodrug Remaining (%) [1, 9] [%] | Prodrug Remaining (%) [1, 10] [%] | Prodrug Remaining (%) [1, 11] [%] | Prodrug Remaining (%) [1, 12] [%] | SMILES | other results |
| --- | --- | --- | --- | --- | --- | --- | --- | --- | --- | --- |
| released naproxen | 100 | ~2.5 | 96.35 | 93.61 | 82.73 | 75.48 | 57.55 | 39.00 | CCCC(OC(=O)[C@@H](C)c1ccc2cc(OC)ccc2c1)O[N+](=O)[O-] (stereo partly drawn) [I-D2-R3, (2S)-1-(nitrooxy)butyl 2-(6-methoxynaphthalen-2-yl)propanoate] |  |
|  | 100.00 |  | 100.00 | 100.00 | 100.00 | 100.00 | 100.00 | 100.00 | COc1ccc2cc([C@H](C)C(=O)OCCCCO[N+](=O)[O-])ccc2c1 [II-D2-X4, reference compound] |  |

Source: patent US9844599B2, “Nitric oxide releasing produgs of therapeutic agents” (priority 2013, dated 2017)
